According to patent US12604903B2 (priority 2019, dated 2026):
Read-outs that look alike come from different tables or passages of the source. Residues, ends and D or L forms follow the SMILES beside them.

Columns and labels:
Fusarium oxysporum = assay type: cell-based

Molecule: CSCC[C@H](NC(=O)[C@H](CCCCN)NC(=O)[C@@H](N)CCCCN)C(=O)N1CCC[C@H]1C(=O)N[C@@H](CS)C(=O)N[C@@H](CCCCN)C(=O)N[C@@H](CCCNC(=N)N)C(=O)N[C@@H](CCCNC(=N)N)C(=O)N[C@@H](CCCNC(=N)N)C(=O)N[C@@H](CC(=O)O)C(=O)N[C@@H](CS)C(=O)N[C@@H](CCCCN)C(=O)N[C@H](C(=O)N[C@@H](Cc1ccc(O)cc1)C(=O)N1CCC[C@H]1C(=O)N[C@@H](CS)C(=O)N1CCC[C@H]1C(=O)N[C@@H](Cc1c[nH]cn1)C(=O)N1CCC[C@H]1C(=O)N[C@@H](CCCCN)C(=O)N[C@H](C(=O)N[C@@H](CCCNC(=N)N)C(=O)N[C@@H](CC(=O)O)C(=O)N[C@@H](CS)C(=O)N[C@H](C(=O)N[C@@H](CCCCN)C(=O)NCC(=O)N[C@@H](Cc1ccc(O)cc1)C(=O)N[C@@H](CS)C(=O)N[C@@H](CCCCN)C(=O)N[C@@H](CS)C(=O)N[C@H](C(=O)N[C@H](C(=O)N[C@@H](CCCNC(=N)N)C(=O)O)C(C)C)C(C)C)C(C)C)C(C)C)[C@@H](C)O [NCR7-S] (H-KKMPCKRRRDCKTYPCPHPKVRDCVKGYCKCVVR-OH; N-terminus and C-terminus assumed)
- Botrytis cinerea MIC (Botrytis cinerea): 6 µM
- IC50 (Botrytis cinerea): 3 µM
- Fusarium graminearum MIC (Fusarium graminearum): 6 µM
- IC50 (Fusarium graminearum): 4 µM
- IC50 (Phytophthora capsici): > 6 µM
- Phytophthora capsici MIC (Phytophthora capsici): >6 µM
- Alternaria brassicicola MIC (Alternaria brassicicola): 6 µM
- IC50 (Alternaria brassicicola): 4 µM

Molecule: CC[C@H](C)[C@H](NC(=O)[C@H](CS)NC(=O)[C@H](CCCCN)NC(=O)[C@@H]1CCCN1C(=O)[C@@H](NC(=O)[C@H](CCCCN)NC(=O)[C@@H]1CCCN1C(=O)[C@H](CCCCN)NC(=O)[C@H](CCCNC(=N)N)NC(=O)[C@H](CS)NC(=O)[C@H](C)NC(=O)[C@H](Cc1ccccc1)NC(=O)[C@H](CCCCN)NC(=O)[C@H](CCCCN)NC(=O)[C@H](CS)NC(=O)[C@H](CC(=O)O)NC(=O)[C@H](CCCCN)NC(=O)[C@H](CC(=O)O)NC(=O)[C@H](CO)NC(=O)[C@H](CCC(N)=O)NC(=O)[C@H](CS)NC(=O)[C@@H]1CCCN1C(=O)[C@H](CCCCN)NC(=O)[C@@H](N)[C@@H](C)O)C(C)C)C(=O)N[C@@H](CC(N)=O)C(=O)NCC(=O)N[C@@H](Cc1ccccc1)C(=O)N[C@@H](CS)C(=O)N[C@@H](CCCCN)C(=O)N[C@@H](CS)C(=O)N[C@H](C(=O)N[C@@H](CCCNC(=N)N)C(=O)O)C(C)C [NCR13-S] (H-TKPCQSDKDCKKFACRKPKVPKCINGFCKCVR-OH)
- Botrytis cinerea MIC (Botrytis cinerea): 3 µM
- IC50 (Botrytis cinerea): 1.5 µM
- Fusarium graminearum MIC (Fusarium graminearum): 6 µM
- IC50 (Fusarium graminearum): 4 µM
- IC50 (Phytophthora capsici): > 6 µM
- Phytophthora capsici MIC (Phytophthora capsici): >6 µM
- Alternaria brassicicola MIC (Alternaria brassicicola): 6 µM
- IC50 (Alternaria brassicicola): 4 µM

Molecule: TKPCQSDKDCKKFACRKPKVPKCINGFCKCVR (listed as Cicer arietinum) [NCR13-P]
- Botrytis cinerea MIC (Botrytis cinerea): 3 µM
- IC50 (Botrytis cinerea; read-out: Botrytis cinerea IC50): 1 µM
- Fusarium graminearum MIC (Fusarium graminearum): 3 µM
- IC50 (Fusarium graminearum; read-out: Fusarium graminearum IC50): 2 µM
- Fusarium oxysporum MIC (Fusarium oxysporum): 2 to 3 µM
- IC50 (Fusarium oxysporum): 1 µM
- Phytophthora capsici MIC (Phytophthora capsici): >6 µM
- growth inhibition of P. capsici (in words) (Phytophthora capsici): inactive
- IC50 (Phytophthora capsici; read-out: Phytophthora capsici IC50): > 6 µM
- Alternaria brassicicola MIC (Alternaria brassicicola): 4 µM
- IC50 (Alternaria brassicicola; read-out: Alternaria brassicicola IC50): 2 µM

Molecule: CC(C)[C@H](NC(=O)[C@H](CS)NC(=O)[C@H](CCCCN)NC(=O)[C@H](CS)NC(=O)[C@H](Cc1ccccc1)NC(=O)CNC(=O)[C@H](CC(N)=O)NC(=O)[C@@H](NC(=O)[C@H](CS)NC(=O)[C@H](CC(N)=O)NC(=O)[C@@H]1CCCN1C(=O)[C@@H](NC(=O)[C@H](CCCCN)NC(=O)[C@@H]1CCCN1C(=O)[C@@H](NC(=O)[C@@H]1CCCN1C(=O)[C@H](CS)NC(=O)[C@H](CCCNC(=N)N)NC(=O)[C@H](Cc1ccc(O)cc1)NC(=O)[C@@H](NC(=O)[C@H](CCCCN)NC(=O)[C@H](CS)NC(=O)[C@H](Cc1c[nH]cn1)NC(=O)[C@H](CCCCN)NC(=O)[C@H](CCCNC(=N)N)NC(=O)[C@H](CO)NC(=O)[C@H](CCCCN)NC(=O)[C@H](CS)NC(=O)[C@@H]1CCCN1C(=O)[C@H](CCC(N)=O)NC(=O)[C@H](CCCCN)NC(=O)[C@@H](N)[C@@H](C)O)[C@@H](C)O)[C@@H](C)O)C(C)C)C(C)C)C(=O)N[C@@H](CCCNC(=N)N)C(=O)O [NCR15-S] (H-TKQPCKSRKHCKTYRCPTPKVPNCVNGFCKCVR-OH; N-terminus and C-terminus assumed)
- Botrytis cinerea MIC (Botrytis cinerea): 6 µM
- IC50 (Botrytis cinerea): 3 µM
- Fusarium graminearum MIC (Fusarium graminearum): 6 µM
- IC50 (Fusarium graminearum): 4 µM
- IC50 (Phytophthora capsici): > 6 µM
- Phytophthora capsici MIC (Phytophthora capsici): >6 µM
- Alternaria brassicicola MIC (Alternaria brassicicola): 6 µM
- IC50 (Alternaria brassicicola): 3 µM

B1: TKPCQSDKDCKKFACRKPKVPKCINGFCKCVRAPKKVEPTKPCQSDKDCKKFACRKPKVPKCINGFCKCVR (protein)
chain: TKPCQSDKDCKKFACRKPKVPKCINGFCKCVRAPKKVEPTKPCQSDKDCKKFACRKPKVPKCINGFCKCVR
notes: two NCR13 monomers linked in tandem by the APKKVEP spacer peptide from MtDef5 defensin, 71 amino acids
- antifungal activity against B. cinerea (in words) (Botrytis cinerea): significantly more active
- Botrytis cinerea MIC (Botrytis cinerea; in vitro growth inhibition): 1.5 µM
- IC50 (Botrytis cinerea; read-out: Botrytis cinerea IC50, in vitro growth inhibition): 0.75 µM
- Fusarium graminearum MIC (Fusarium graminearum; in vitro growth inhibition): 1.5 µM
- IC50 (Fusarium graminearum; read-out: Fusarium graminearum IC50, in vitro growth inhibition): 1 µM
- Fusarium oxysporum MIC (Fusarium oxysporum): 0.3 µM
- IC50 (Fusarium oxysporum): 0.1 µM
- antifungal activity against F. oxysporum (in words) (Fusarium oxysporum): significantly more active
